Test results: the NIST ThermoML archive (doi:10.1016/j.fluid.2008.02.005)

Experiments:
[1] = xn = mol fraction of the nth substance listed; settings: 101 kPa, Liquid
[2] = 101.33 kPa, Liquid

CCCCCCOCCOCCO [2-(2-hexyloxyethoxy)ethanol] + CCCO
mass density [kg/m3], [1]
Settings	288.15 K	298.15 K	308.15 K
x1 = 0.1085	837.518	829.325	820.919
x1 = 0.1608	848.615	840.381	831.968
x1 = 0.2102	857.751	849.425	841.022
x1 = 0.2477	863.891	855.521	847.161
x1 = 0.2972	871.227	862.829	854.397
x1 = 0.3493	878.129	869.65	861.101
x1 = 0.4048	884.6	876.088	867.464
x1 = 0.46	890.404	881.84	873.153
x1 = 0.5003	894.261	885.64	876.925
x1 = 0.5584	899.282	890.668	881.873
x1 = 0.6066	903.088	894.428	885.633
x1 = 0.6604	906.948	898.225	889.461
x1 = 0.6964	909.32	900.561	891.847
x1 = 0.7532	912.745	903.981	895.267
x1 = 0.8054	915.595	906.826	898.1
x1 = 0.8563	918.152	909.394	900.587
x1 = 0.9044	920.357	911.598	902.735
x1 = 0.9593	922.69	913.937	905.015

CCCCCCOCCOCCO [2-(2-hexyloxyethoxy)ethanol] + CO
mass density [kg/m3], [1]
Settings	288.15 K	298.15 K	308.15 K
x1 = 0.1165	853.467	844.018	834.816
x1 = 0.162	865.705	856.244	846.965
x1 = 0.2113	875.875	866.451	857.177
x1 = 0.266	884.716	875.458	866.337
x1 = 0.3119	890.88	881.656	872.742
x1 = 0.3606	896.388	887.19	878.481
x1 = 0.4012	900.31	891.16	882.585
x1 = 0.4577	904.872	895.844	887.363
x1 = 0.5071	908.159	899.262	890.741
x1 = 0.5578	911.041	902.168	893.568
x1 = 0.6037	913.218	904.353	895.701
x1 = 0.6644	915.682	906.87	898.078
x1 = 0.7102	917.283	908.456	899.602
x1 = 0.7533	918.633	909.864	901.011
x1 = 0.7928	919.837	911.054	902.199
x1 = 0.8517	921.511	912.714	903.777
x1 = 0.9	922.714	913.911	905.244
x1 = 0.9674	924.001	915.182	906.508

CCCCCCCO [heptan-1-ol]
[2]
Settings	mass density [kg/m3]
288.15 K	825.943
298.15 K	818.789
308.15 K	812.385

CO [methanol]
[2]
Settings	mass density [kg/m3]
288.15 K	795.969
298.15 K	786.548
308.15 K	777.067

CCCCCO [pentan-1-ol]
[2]
Settings	mass density [kg/m3]
288.15 K	818.336
298.15 K	811.001
308.15 K	803.302

CCCO [propan-1-ol]
[2]
Settings	mass density [kg/m3]
288.15 K	807.898
298.15 K	799.666
308.15 K	791.765
